Legend:
[1] = test system: crabgrass; experiment: Test A crabgrass; type: in vivo, Digitaria spp.; conditions: 0 to 10 scale where 0 is no effect and 10 is complete control
In short: (§1)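 Ratings came from visual comparison with untreated plants about eleven days after treatment, scored 0 for no effect through 10 for complete control. Both soil-drench preemergence and runoff-spray postemergence applications were made at the same time.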

[2] = test system: barnyardgrass; experiment: Test A barnyardgrass; type: in vivo, Echinochloa crus-galli; conditions: 0 to 10 scale where 0 is no effect and 10 is complete control
In short: as §1

[3] = test system: velvetleaf; experiment: Test A velvetleaf; type: in vivo, Abutilon theophrasti; conditions: 0 to 10 scale where 0 is no effect and 10 is complete control
In short: as §1

[4] = test system: morningglory; experiment: Test A morningglory; type: in vivo, Ipomoea spp.; conditions: 0 to 10 scale where 0 is no effect and 10 is complete control
In short: as §1

[5] = test system: itchgrass; experiment: Test D itchgrass; type: in vivo, Rottboellia exaltata; conditions: Preemergence, 0 to 100 scale
In short: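 Scoring used a 0–100 visual injury scale, with 0 meaning no effect and 100 complete control, assessed 14–21 days after application alongside untreated pots. Preemergence treatments went onto sandy loam surfaces of separately potted seeds within a day of sowing.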

[6] = test system: Johnson grass; experiment: Test D Johnson grass; type: in vivo, Sorghum halepense; conditions: Preemergence, 0 to 100 scale
In short: (§2)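 Seeds were sown in greenhouse pots, one species per pot or compartment. Compounds were in a non-phytotoxic solvent mixture with surfactant; preemergence applications went on the sandy loam surface within one day of planting. Injury was rated visually after 14 to 21 days, 0 (none) to 100 (complete control).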

[7] = test system: purple nutsedge; experiment: Test D purple nutsedge; type: in vivo, Cyperus rotundus; conditions: Preemergence, 0 to 100 scale
Description: (§3) Seeds, tubers, or plant parts of Alexandergrass (Brachiaria plantaginea), bermuda-grass (Cynodon dactylon), common pursiane (Portulaca oleracea), common ragweed (Ambrosia elatior), common groundsel (Senecio vulgaris), dallisgrass (Paspalum dilatatum), goosegrass (Eleusine indica), guineagrass (Panicum maximum), itchgrass (Rottboellia exaltata), Johnson grass (Sorghum halepense), large crabgrass (Digitaria sanguinalis), pitted morningglory (Ipomoea lacunosa), purple nutsedge (Cyperus rotundus), sandbur (Cenchrus echinatus), sourgrass (Trichachne insularis), Spanishneedles (Bidens bipinnata), surinam grass (Brachiaria decumbens) and tall mallow (Malva sylvestris) were planted into greenhouse pots of flats containing greenhouse planting medium. Plant species were grown in separate pots or individual compartments. Preemergence applications were made within one day of planting the seed or plant part.
(§4) Test chemicals were formulated in a non-phytotoxic solvent mixture which included a surfactant and applied preemergence to the surface of the pot containing seeds in a sandy loam soil. Untreated control pots and treated pots were placed in the greenhouse for growth and visually evaluated for injury 14 to 21 days after herbicide application. Plant response ratings, summarized in Table C, are based on a 0 to 100 scale where 0 is no injury and 100 is complete control. A dash (−) response means no test result.

[8] = test system: common pursiane; experiment: Test D common purslane; type: in vivo, Portulaca oleracea; conditions: Preemergence, 0 to 100 scale
In short: as §2

[9] = test system: sandbur; experiment: Test D sandbur; type: in vivo, Cenchrus echinatus; conditions: Preemergence, 0 to 100 scale
Description: as §3, §4

[10] = test system: goosegrass; experiment: Test D goosegrass; type: in vivo, Eleusine indica; conditions: Preemergence, 0 to 100 scale
In short: as §2

[11] = test system: dallisgrass; experiment: Test D dallisgrass; type: in vivo, Paspalum dilatatum; conditions: Preemergence, 0 to 100 scale
In short: as §2

[12] = test system: Alexandergrass; experiment: Test D Alexandergrass; type: in vivo, Brachiaria plantaginea; conditions: Preemergence, 0 to 100 scale
In short: as §2

[13] = test system: tall mallow; experiment: Test D tall mallow; type: in vivo, Malva sylvestris; conditions: Preemergence, 0 to 100 scale
Description: as §3, §4

[14] = test system: common groundsel; experiment: Test D common groundsel; type: in vivo, Senecio vulgaris; conditions: Preemergence, 0 to 100 scale
Description: as §3, §4

[15] = test system: guineagrass; experiment: Test D guineagrass; type: in vivo, Panicum maximum; conditions: Preemergence, 0 to 100 scale
In short: as §2

[16] = test system: cotton; experiment: Test C postemergence cotton; type: in vivo, Gossypium hirsutum; conditions: 0 to 100 scale, 0 no effect, 100 complete control
In short: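 Foliar postemergence treatment of greenhouse plants grown in 60:40 sandy loam:potting mix; compounds delivered in non-phytotoxic solvent with surfactant. Evaluation is visual, 0–100, after ~14–21 d.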

[17] = Rate 32 g/ha, 0 no injury, 100 complete control
[18] = Rate 64 g/ha, 0 no injury, 100 complete control
[19] = Rate 125 g/ha, 0 no injury, 100 complete control
[20] = Rate 16 g/ha, 0 no injury, 100 complete control

SMILES: CCN(CC)C(=O)n1oc(=O)n(-c2ccc(F)cc2)c1=O [Compound 3]
- Plant response rating, Crabgrass ([1]; Postemergence, Rate 1000 g/ha): 0
- Plant response rating, Crabgrass ([1]; Pre-emergence, Rate 2000 g/ha): 3
- Plant response rating, Barnyardgrass ([2]; Postemergence, Rate 1000 g/ha): 6
- Plant response rating, Barnyardgrass ([2]; Pre-emergence, Rate 2000 g/ha): 9
- Plant response rating, Velvetleaf ([3]; Postemergence, Rate 1000 g/ha): 0
- Plant response rating, Velvetleaf ([3]; Pre-emergence, Rate 2000 g/ha): 0
- Plant response rating, Morningglory ([4]; Postemergence, Rate 1000 g/ha): 0
- Plant response rating, Morningglory ([4]; Pre-emergence, Rate 2000 g/ha): 0

SMILES: Cc1ccc(-n2c(=O)on(C(=O)N(c3ccc(F)cc3F)C(C)C)c2=O)c(C)c1 [Compound 24]
- Plant response rating, Itchgrass [5, 17]: 40
- Plant response rating, Itchgrass [5, 18]: 40
- Plant response rating, Itchgrass [5, 19]: 40
- Plant response rating, Itchgrass ([5]; Rate 250 g/ha): 40
- Plant response rating, Itchgrass ([5]; Rate 500 g/ha): 40
- Plant response rating, Johnsongrass [6, 17]: 0
- Plant response rating, Johnsongrass [6, 18]: 0
- Plant response rating, Johnsongrass [6, 19]: 0
- Plant response rating, Johnsongrass ([6]; Rate 250 g/ha): 85
- Plant response rating, Johnsongrass ([6]; Rate 500 g/ha): 85
- Plant response rating, Purple nutsedge [7, 17]: 0
- Purple nutsedge plant response rating [7, 18]: 0
- Purple nutsedge plant response rating [7, 19]: 0
- Plant response rating, Purple nutsedge ([7]; Rate 250 g/ha): 0
- Plant response rating, Purple nutsedge ([7]; Rate 500 g/ha): 0
- Plant response rating, C. purslane [8, 17]: 0
- Plant response rating, C. purslane [8, 18]: 0
- Plant response rating, C. purslane [8, 19]: 0
- Plant response rating, C. purslane ([8]; Rate 250 g/ha): 0
- Plant response rating, C. purslane ([8]; Rate 500 g/ha): 0
- Plant response rating, Sandbur [9, 17]: 20
- Sandbur plant response rating [9, 18]: 20
- Sandbur plant response rating [9, 19]: 20
- Plant response rating, Sandbur ([9]; Rate 250 g/ha): 20
- Plant response rating, Sandbur ([9]; Rate 500 g/ha): 100
- Plant response rating, Goosegrass [10, 17]: 50
- Plant response rating, Goosegrass [10, 18]: 50
- Plant response rating, Goosegrass [10, 19]: 98
- Plant response rating, Goosegrass ([10]; Rate 250 g/ha): 98
- Plant response rating, Goosegrass ([10]; Rate 500 g/ha): 100
- Plant response rating, Dallisgrass [11, 17]: 30
- Plant response rating, Dallisgrass [11, 18]: 30
- Plant response rating, Dallisgrass [11, 19]: 98
- Plant response rating, Dallisgrass ([11]; Rate 250 g/ha): 98
- Plant response rating, Dallisgrass ([11]; Rate 500 g/ha): 100
- Plant response rating, Alexandergrass [12, 17]: 10
- Plant response rating, Alexandergrass [12, 18]: 10
- Plant response rating, Alexandergrass [12, 19]: 10
- Plant response rating, Alexandergrass ([12]; Rate 250 g/ha): 65
- Plant response rating, Alexandergrass ([12]; Rate 500 g/ha): 98
- Plant response rating, Tall Mallow [13, 17]: 0
- Tall Mallow plant response rating [13, 18]: 0
- Tall Mallow plant response rating [13, 19]: 0
- Plant response rating, Tall Mallow ([13]; Rate 250 g/ha): 0
- Plant response rating, Tall Mallow ([13]; Rate 500 g/ha): 0
- Plant response rating, Com. groundsel [14, 17]: 0
- Plant response rating, Com. groundsel [14, 18]: 0
- Plant response rating, Com. groundsel [14, 19]: 0
- Plant response rating, Com. groundsel ([14]; Rate 250 g/ha): 0
- Plant response rating, Com. groundsel ([14]; Rate 500 g/ha): 0
- Plant response rating, Guineagrass [15, 17]: 60
- Plant response rating, Guineagrass [15, 18]: 75
- Plant response rating, Guineagrass [15, 19]: 90
- Plant response rating, Guineagrass ([15]; Rate 250 g/ha): 98
- Plant response rating, Guineagrass ([15]; Rate 500 g/ha): 100

SMILES: CC(C)N(C(=O)n1oc(=O)n(C(C)C)c1=O)c1ccccc1 [Compound 113]
- Plant response rating, Itchgrass [5, 20]: 10
- Plant response rating, Itchgrass [5, 17]: 40
- Plant response rating, Itchgrass [5, 18]: 50
- Plant response rating, Itchgrass [5, 19]: 60
- Plant response rating, Johnsongrass [6, 20]: 0
- Plant response rating, Johnsongrass [6, 17]: 60
- Plant response rating, Johnsongrass [6, 18]: 80
- Plant response rating, Johnsongrass [6, 19]: 90
- Plant response rating, Purple nutsedge [7, 20]: 0
- Plant response rating, Purple nutsedge [7, 17]: 0
- Purple nutsedge plant response rating [7, 18]: 20
- Purple nutsedge plant response rating [7, 19]: 30
- Plant response rating Cotton ([16]; Rate 140 g/ha): 10
- Plant response rating Cotton ([16]; Rate 280 g/ha): 15
- Plant response rating Cotton ([16]; Rate 560 g/ha): 50
- Plant response rating Cotton ([16]; Rate 1120 g/ha): 80
- Plant response rating, C. purslane [8, 20]: 0
- Plant response rating, C. purslane [8, 17]: 0
- Plant response rating, C. purslane [8, 18]: 0
- Plant response rating, C. purslane [8, 19]: 0
- Plant response rating, Sandbur [9, 20]: 0
- Plant response rating, Sandbur [9, 17]: 65
- Sandbur plant response rating [9, 18]: 75
- Sandbur plant response rating [9, 19]: 100
- Plant response rating, Goosegrass [10, 20]: 90
- Plant response rating, Goosegrass [10, 17]: 100
- Plant response rating, Goosegrass [10, 18]: 100
- Plant response rating, Goosegrass [10, 19]: 100
- Plant response rating, Dallisgrass [11, 20]: 0
- Plant response rating, Dallisgrass [11, 17]: 95
- Plant response rating, Dallisgrass [11, 18]: 100
- Plant response rating, Dallisgrass [11, 19]: 100
- Plant response rating, Alexandergrass [12, 20]: 65
- Plant response rating, Alexandergrass [12, 17]: 85
- Plant response rating, Alexandergrass [12, 18]: 98
- Plant response rating, Alexandergrass [12, 19]: 98
- Plant response rating, Tall Mallow [13, 20]: 0
- Plant response rating, Tall Mallow [13, 17]: 0
- Tall Mallow plant response rating [13, 18]: 0
- Tall Mallow plant response rating [13, 19]: 30
- Plant response rating, Com. groundsel [14, 20]: 0
- Plant response rating, Com. groundsel [14, 17]: 65
- Plant response rating, Com. groundsel [14, 18]: 100
- Plant response rating, Com. groundsel [14, 19]: 100
- Plant response rating, Guineagrass [15, 20]: 85
- Plant response rating, Guineagrass [15, 17]: 100
- Plant response rating, Guineagrass [15, 18]: 100
- Plant response rating, Guineagrass [15, 19]: 100

SMILES: C=CCn1c(=O)on(C(=O)N(c2ccc(F)cc2F)C2CC2)c1=O [Compound 127]
- Plant response rating, Crabgrass ([1]; Postemergence, Rate 1000 g/ha): 7
- Plant response rating, Crabgrass ([1]; Pre-emergence, Rate 2000 g/ha): 8
- Plant response rating, Barnyardgrass ([2]; Postemergence, Rate 1000 g/ha): 6
- Plant response rating, Barnyardgrass ([2]; Pre-emergence, Rate 2000 g/ha): 9
- Plant response rating, Velvetleaf ([3]; Postemergence, Rate 1000 g/ha): 0
- Plant response rating, Velvetleaf ([3]; Pre-emergence, Rate 2000 g/ha): 0
- Plant response rating, Morningglory ([4]; Postemergence, Rate 1000 g/ha): 0
- Plant response rating, Morningglory ([4]; Pre-emergence, Rate 2000 g/ha): 0

— patent US6737383B1, “Herbicidal oxadiazolidines” (priority 1999, dated 2004)
